Data as given in the supplement of paper PMC11061612.

Columns and labels:
[1] = compound: CC(=O)c1c(C)c2cnc(Nc3ccc(N4CCNCC4)cn3)nc2n(C2CCCC2)c1=O [Palbociclib]; settings: max 10 µM
Outline: (§1)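 After 24 hours at 37°C and 5% CO2 in 1536-well plates holding 7.5 μl of DMEM/F12 or RPMI with 10% FBS, cancer cell lines were dosed for 72 hours, with final DMSO typically 0.2%. Viability came from CellTiter-Glo 2.0 luminescence, scaled between the means of blank wells and DMSO wells. A non-linear mixed effects model fitted a two-parameter logistic curve to each dose response to give the single-agent IC50.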

[2] = compound: CC(C)n1c(=O)n(C)c2cnc3cc(F)c(-c4ccc(OCCCN5CCCCC5)nc4)cc3c21 [AZD1390]; settings: max 0.3 µM
Outline: as §1

[3] = compound: C1CC(C1)(C(=O)[O-])C(=O)[O-].N.N.[Pt+2] [Carboplatin]; settings: max 10 µM
Outline: as §1

[4] = compound: C[C@@H](Nc1cc(F)cc(F)c1)c1cc(C(=O)N(C)C)cc2c(=O)cc(N3CCOCC3)oc12 [AZD8186]; settings: max 10 µM
Outline: as §1

[5] = compound: Cc1cc2ncnn2cc1Nc1ncc2c(n1)n(C1CCOCC1)c(=O)n2C [AZD7648]; settings: max 10 µM
Outline: as §1

[6] = compound: COc1cc(Nc2ncc3c(n2)-c2ccc(Cl)cc2C(c2c(F)cccc2OC)=NC3)ccc1C(=O)O [Alisertib]; settings: max 10 µM
Outline: as §1

[7] = compound: CC1(C)CCC(CN2CCN(c3ccc(C(=O)NS(=O)(=O)c4ccc(NCC5CCOCC5)c([N+](=O)[O-])c4)c(Oc4cnc5[nH]ccc5c4)c3)CC2)=C(c2ccc(Cl)cc2)C1 [Venetoclax]; settings: max 1 µM
Outline: as §1

[8] = compound: CC1=C(C(=CC=C1)Cl)NC(=O)C2=CN=C(S2)NC3=CC(=NC(=N3)C)N4CCN(CC4)CCO [Dasatinib]; settings: max 2 µM
Outline: as §1

[9] = compound: C=CCn1c(=O)c2cnc(Nc3ccc(N4CCN(C)CC4)cc3)nc2n1-c1cccc(C(C)(C)O)n1 [AZD1775]; settings: max 3 µM
Outline: as §1

[10] = compound: C[C@@H](Oc1cc(-c2cnn(C3CCNCC3)c2)cnc1N)c1c(Cl)ccc(F)c1Cl [Crizotinib]; settings: max 10 µM
Outline: as §1

[11] = compound: O=c1[nH]cc(F)c(=O)[nH]1 [5-Fluorouracil]; settings: max 20 µM
Outline: as §1

[12] = compound: CC(=O)Nc1cccc(-n2c(=O)n(C3CC3)c(=O)c3c(Nc4ccc(I)cc4F)n(C)c(=O)c(C)c32)c1 [Trametinib]; settings: max 1 µM
Outline: as §1

[13] = compound: CN(C)CCCOc1ccc(-c2ccc3ncc4c(c3c2)n(C2CCOCC2)c(=O)n4C)cn1 [AZD0156]; settings: max 3 µM
Outline: as §1

[14] = compound: CCc1c2c(nc3ccc(O)cc13)-c1cc3c(c(=O)n1C2)COC(=O)[C@]3(O)CC [SN-38]; settings: max 0.3 µM
Outline: as §1

[15] = compound: NC1(c2ccc(-c3nc4ccn5c(=O)[nH]nc5c4cc3-c3ccccc3)cc2)CCC1 [MK-2206]; settings: max 10 µM
Outline: as §1

[16] = compound: CCN(CCO)CCCOc1ccc2c(Nc3cc(CC(=O)Nc4cccc(F)c4)[nH]n3)ncnc2c1 [AZD2811]; settings: max 1 µM
Outline: as §1

[17] = compound: C[C@@H](c1ccc2nccn2c1)n1nnc2ncc(-c3cnn(C)c3)nc21 [Savolitinib]; settings: max 1 µM
Outline: as §1

[18] = compound: Cc1c2c(nn1C)CSCc1cc(n(C)n1)CSc1cc(c3ccccc3c1)OCCCc1c(C(=O)O)n(C)c3c-2c(Cl)ccc13 [AZD5991]; settings: max 1 µM
Outline: as §1

[19] = compound: O=C(Nc1ccc2[nH]nc(-c3ccncc3)c2c1)[C@@H]1CCN(CC(=O)N2CCN(c3ccc(-c4ncccn4)cc3)CC2)C1; settings: max 5 µM
Outline: as §1

[20] = compound: COc1cc2ncnc(Nc3ccc(F)c(Cl)c3)c2cc1OCCCN1CCOCC1 [Gefitinib]; settings: max 10 µM
Outline: as §1

[21] = compound: COc1cccc(OCCCN)c1-c1cc(Nc2cnc(C#N)cn2)n[nH]1 [Prexasertib]; settings: max 1 µM
Outline: as §1

[22] = compound: COc1cc([C@@H]2c3cc4c(cc3[C@@H](O[C@@H]3O[C@@H]5CO[C@@H](C)O[C@H]5[C@H](O)[C@H]3O)[C@H]3COC(=O)[C@H]23)OCO4)cc(OC)c1O [Etoposide]; settings: max 10 µM
Outline: as §1

[23] = compound: CC(=O)O[C@H]1C(=O)[C@@]2(C)[C@H]([C@H](OC(=O)c3ccccc3)[C@]3(O)C[C@H](OC(=O)[C@H](O)[C@@H](NC(=O)c4ccccc4)c4ccccc4)C(C)=C1C3(C)C)[C@]1(OC(C)=O)CO[C@@H]1C[C@@H]2O [Paclitaxel]; settings: max 3 µM
Outline: as §1

[24] = compound: COc1nnc2ccc(N3CCC(c4ccc(OCCN5CCN(C)C(=O)[C@H]5C)cc4)CC3)nn12 [AZD5153]; settings: max 1 µM
Outline: as §1

[25] = compound: O=C(c1cc(Cc2n[nH]c(=O)c3ccccc23)ccc1F)N1CCN(C(=O)C2CC2)CC1 [Olaparib]; settings: max 10 µM
Outline: as §1

[26] = compound: CS(=O)(=O)CCNCc1ccc(-c2ccc3ncnc(Nc4ccc(OCc5cccc(F)c5)c(Cl)c4)c3c2)o1 [Lapatinib]; settings: max 10 µM
Outline: as §1

[27] = compound: Cn1cnc2c(F)c(Nc3ccc(Br)cc3Cl)c(C(=O)NOCCO)cc21 [Selumetinib]; settings: max 10 µM
Outline: as §1

[28] = compound: C[C@@H]1COCCN1C2=NC(=NC(=C2)C3(CC3)[S@](=N)(=O)C)C4=C5C=CNC5=NC=C4 [AZD6738]; settings: max 10 µM
Outline: as §1

[29] = compound: Cc1nc(-c2cn3c(n2)-c2ccc(-c4cnn(C(C)(C)C(N)=O)c4)cc2OCC3)n(C(C)C)n1 [Taselisib]; settings: max 10 µM
Outline: as §1

[30] = compound: C1CN(CCC1(C(=O)N[C@@H](CCO)C2=CC=C(C=C2)Cl)N)C3=NC=NC4=C3C=CN4 [AZD5363]; settings: max 10 µM
Outline: as §1

[31] = compound: CN(CC[C@H](CSC1=CC=CC=C1)NC2=C(C=C(C=C2)S(=O)(=O)NC(=O)C3=CC=C(C=C3)N4CCC(CC4)[C@H](C5=CC=CC=C5C6=CC=C(C=C6)Cl)O)S(=O)(=O)C(F)(F)F)CCO [AZD4320]; settings: max 1 µM
Outline: as §1

[32] = compound: N#Cc1cnc(Nc2cc(NC[C@H]3CNCCO3)c(C(F)(F)F)cn2)cn1 [SRA737]; settings: max 10 µM
Outline: as §1

[33] = compound: Nc1ccn([C@@H]2O[C@H](CO)[C@@H](O)C2(F)F)c(=O)n1 [Gemcitabine]; settings: max 0.3 µM
Outline: as §1

[34] = compound: COc1cccc2c1C(=O)c1c(O)c3c(c(O)c1C2=O)C[C@@](O)(C(=O)CO)C[C@@H]3O[C@H]1C[C@H](N)[C@H](O)[C@H](C)O1 [Doxorubicin]; settings: max 1 µM
Outline: as §1

[35] = compound: CC1=CN2[C@@H](C1)C=NC3=CC(=C(C=C3C2=O)OC)OCCCCCOC4=C(C=C5C(=C4)N=C[C@@H]6CC(=CN6C5=O)C)OC [SG3199]; settings: max 0.001 µM
Outline: as §1

Cell Line | IC50, cell viability 72 h [1] | IC50, cell viability 72 h [2] | IC50, cell viability 72 h [3] | IC50, cell viability 72 h [4] | IC50, cell viability 72 h [5] | IC50, cell viability 72 h [6] | IC50, cell viability 72 h [7] | IC50, cell viability 72 h [8] | IC50, cell viability 72 h [9] | IC50, cell viability 72 h [10] | IC50, cell viability 72 h [11] | IC50, cell viability 72 h [12] | IC50, cell viability 72 h [13] | IC50, cell viability 72 h [14] | IC50, cell viability 72 h [15] | IC50, cell viability 72 h [16] | IC50, cell viability 72 h [17] | IC50, cell viability 72 h [18] | IC50, cell viability 72 h [19] | IC50, cell viability 72 h [20] | IC50, cell viability 72 h [21] | IC50, cell viability 72 h [22] | IC50, cell viability 72 h [23] | IC50, cell viability 72 h [24] | IC50, cell viability 72 h [25] | IC50, cell viability 72 h [26] | IC50, cell viability 72 h [27] | IC50, cell viability 72 h [28] | IC50, cell viability 72 h [29] | IC50, cell viability 72 h [30] | IC50, cell viability 72 h [31] | IC50, cell viability 72 h [32] | IC50, cell viability 72 h [33] | IC50, cell viability 72 h [34] | IC50, cell viability 72 h [35]
Mo-T (Other Blood Carcinomas) | > 10000 nM | > 300 nM | > 10000 nM | > 10000 nM | > 10000 nM | > 10000 nM | > 1000 nM | > 2000 nM | 790 nM | > 10000 nM | > 20000 nM | > 1000 nM | > 3000 nM | 44 nM | > 10000 nM | > 1000 nM | > 1000 nM | > 1000 nM | > 5000 nM | > 10000 nM | > 1000 nM | 1090 nM | 106 nM | 343 nM | > 10000 nM | > 10000 nM | > 10000 nM | > 10000 nM | > 10000 nM | > 10000 nM | 671 nM | > 10000 nM | 52.6 nM | 217 nM | > 1 nM
NCI-H522 (Lung Adenocarcinoma) | > 10000 nM | > 300 nM | > 10000 nM | > 10000 nM | > 10000 nM | > 10000 nM | > 1000 nM | > 2000 nM | > 3000 nM | > 10000 nM | > 20000 nM | > 1000 nM | > 3000 nM | > 300 nM | > 10000 nM | > 1000 nM | > 1000 nM | > 1000 nM | > 5000 nM | > 10000 nM | > 1000 nM | > 10000 nM | 59.5 nM | > 1000 nM | > 10000 nM | > 10000 nM | > 10000 nM | > 10000 nM | > 10000 nM | > 10000 nM | > 1000 nM | > 10000 nM | > 300 nM | > 1000 nM | > 1 nM
NCI-H1355 (Lung Adenocarcinoma) | > 10000 nM | > 300 nM | > 10000 nM | > 10000 nM | > 10000 nM | > 10000 nM | > 1000 nM | > 2000 nM | > 3000 nM | > 10000 nM | > 20000 nM | > 1000 nM | > 3000 nM | > 300 nM | > 10000 nM | > 1000 nM | > 1000 nM | > 1000 nM | > 5000 nM | > 10000 nM | 86.5 nM | > 10000 nM | 42.9 nM | > 1000 nM | > 10000 nM | > 10000 nM | > 10000 nM | 8560 nM | 5790 nM | > 10000 nM | > 1000 nM | > 10000 nM | > 300 nM | > 1000 nM | > 1 nM
NCI-H1993 (Lung Adenocarcinoma) | > 10000 nM | > 300 nM | > 10000 nM | > 10000 nM | > 10000 nM | > 10000 nM | > 1000 nM | > 2000 nM | 1340 nM | 309 nM | 9360 nM | 89.4 nM | > 3000 nM | 262 nM | 4430 nM | > 1000 nM | 22 nM | > 1000 nM | 3250 nM | > 10000 nM | 62.5 nM | 6590 nM | 11.2 nM | > 1000 nM | > 10000 nM | > 10000 nM | 9990 nM | > 10000 nM | 4520 nM | 5220 nM | 383 nM | > 10000 nM | 15.5 nM | 249 nM | > 1 nM
OE33 (Esophageal Adenocarcinoma) | > 10000 nM | > 300 nM | > 10000 nM | > 10000 nM | > 10000 nM | > 10000 nM | > 1000 nM | > 2000 nM | 1590 nM | > 10000 nM | > 20000 nM | > 1000 nM | > 3000 nM | 199 nM | > 10000 nM | > 1000 nM | > 1000 nM | > 1000 nM | > 5000 nM | > 10000 nM | 43.5 nM | > 10000 nM | 736 nM | > 1000 nM | > 10000 nM | > 10000 nM | > 10000 nM | 2590 nM | > 10000 nM | > 10000 nM | > 1000 nM | 7720 nM | 170 nM | > 1000 nM | > 1 nM
